From publication PMC9076611, “Ataluren binds to multiple protein synthesis apparatus sites and competitively inhibits release factor-dependent termination” (Nature Communications, 2022)

What was measured:
[1] = target: T1, eRF1 (Saccharomyces cerevisiae, UniProt P12385); test: competition with [3H]-AzAt photoaffinity labeling of isolated eRF1 ([…] ataluren vs […] AzAt); assay type: binding
T1 construct: gene SUP45; Full-length S. cerevisiae eRF1

[2] = target: T1, eRF1; test: photoaffinity labeling with [3H]-AzAt, saturation curve on isolated eRF1 (SDS-PAGE gel slice radioactivity); assay type: binding
From the text: photoaffinity labeling with [3H]-AzAt, saturation curve on isolated eRF1 (SDS-PAGE gel slice radioactivity) on eRF1 | Photoincorporation into isolated eRF1 as a function of AzAt concentration results in a simple hyperbolic saturation curve

T1 sequence (P12385 whole entry): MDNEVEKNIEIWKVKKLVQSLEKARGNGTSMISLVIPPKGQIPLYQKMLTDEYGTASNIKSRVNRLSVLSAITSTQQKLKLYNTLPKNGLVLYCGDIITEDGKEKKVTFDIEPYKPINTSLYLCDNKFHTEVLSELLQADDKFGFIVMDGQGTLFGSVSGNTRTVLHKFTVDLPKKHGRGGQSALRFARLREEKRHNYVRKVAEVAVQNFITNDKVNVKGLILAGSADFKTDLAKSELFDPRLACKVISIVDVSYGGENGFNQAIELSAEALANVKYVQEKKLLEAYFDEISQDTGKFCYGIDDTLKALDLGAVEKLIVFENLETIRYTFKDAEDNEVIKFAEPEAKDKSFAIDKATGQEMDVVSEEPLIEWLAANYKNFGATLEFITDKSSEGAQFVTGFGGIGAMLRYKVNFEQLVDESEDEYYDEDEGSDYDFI

| EC50 [2] [µM] | SMILES | competition with [3H]-AzAt photoaffinity labeling of isolated eRF1 (1000 μM atal) [1] |
| --- | --- | --- |
|  | O=C(O)c1cccc(-c2noc(-c3ccccc3F)n2)c1 [ataluren] | both ataluren and GJ072, an ataluren-like TRID, substantially inhibit AzAt photoincorporation into isolated eRF1 |
| 110 ± 20 | [N-]=[N+]=Nc1ccc(-c2nc(-c3cccc(C(=O)O)c3)no2)cc1 [AzAt, 3-(5-(4-azidophenyl)-1,2,4-oxadiazol-3-yl) benzoic acid] |  |
